Assay results as given in ChEMBL document CHEMBL1201862, “PubChem BioAssay data set” (2004).
Active and inactive are the calls of the source.

Legend:
[1] = cells; assay type: functional, cell-based
[2] = target: T1, Trace amine-associated receptor 1 (Homo sapiens, UniProt Q96RJ0); experiment: Fluorescence-based cell-based high throughput dose response assay to identify agonists of the human trace amine associated receptor 1 (TAAR1).; assay type: functional
T1 sequence (Q96RJ0 whole entry): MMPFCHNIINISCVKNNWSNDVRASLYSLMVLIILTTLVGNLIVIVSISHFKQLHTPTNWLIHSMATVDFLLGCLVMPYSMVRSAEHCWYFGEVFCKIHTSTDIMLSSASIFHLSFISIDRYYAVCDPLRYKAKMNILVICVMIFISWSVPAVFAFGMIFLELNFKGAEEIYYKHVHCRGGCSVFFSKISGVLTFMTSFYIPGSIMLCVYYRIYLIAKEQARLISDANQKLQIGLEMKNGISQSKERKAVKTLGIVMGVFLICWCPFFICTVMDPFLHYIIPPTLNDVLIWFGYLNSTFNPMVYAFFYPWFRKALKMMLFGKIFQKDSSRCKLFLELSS

[3] = target: T1, Trace amine-associated receptor 1; experiment: Counterscreen for agonists of the human trace amine associated receptor 1 (hTAAR1): Fluorescence-based cell-based high throughput dose response assay to identify hTAAR1 agonist that also desensitize TAAR1 receptor response.; assay type: functional
[4] = cells; assay type: functional, cell-based; remark: listed apart in the source
[5] = inhibitors of intracellular T. cruzi replication, confirmation, NIH3T3 host cells, beta-gal luminescence (AID 2044); assay type: functional, cell-based;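 also: intracellular parasites grown in NIH/3T3 mouse fibroblasts as host cells; luminescent beta-galactosidase reporter signal from transgenic T. cruzi replicating inside host cells; inhibitors lower the luminescence signal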
[6] = cytotoxicity toward NIH3T3 fibroblasts, dose response, counter-screen, cell-based, ATP luminescence, mouse fibroblasts (AID 2010); assay type: functional;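 also: cells exposed to compound for about 90 hours before reading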
[7] = target: T2, Methionyl-tRNA synthetase, putative (Trypanosoma brucei brucei, UniProt Q38C91); assay type: functional, Trypanosoma brucei brucei strain 927/4 GUTat10.1
T2 sequence (Q38C91 whole entry): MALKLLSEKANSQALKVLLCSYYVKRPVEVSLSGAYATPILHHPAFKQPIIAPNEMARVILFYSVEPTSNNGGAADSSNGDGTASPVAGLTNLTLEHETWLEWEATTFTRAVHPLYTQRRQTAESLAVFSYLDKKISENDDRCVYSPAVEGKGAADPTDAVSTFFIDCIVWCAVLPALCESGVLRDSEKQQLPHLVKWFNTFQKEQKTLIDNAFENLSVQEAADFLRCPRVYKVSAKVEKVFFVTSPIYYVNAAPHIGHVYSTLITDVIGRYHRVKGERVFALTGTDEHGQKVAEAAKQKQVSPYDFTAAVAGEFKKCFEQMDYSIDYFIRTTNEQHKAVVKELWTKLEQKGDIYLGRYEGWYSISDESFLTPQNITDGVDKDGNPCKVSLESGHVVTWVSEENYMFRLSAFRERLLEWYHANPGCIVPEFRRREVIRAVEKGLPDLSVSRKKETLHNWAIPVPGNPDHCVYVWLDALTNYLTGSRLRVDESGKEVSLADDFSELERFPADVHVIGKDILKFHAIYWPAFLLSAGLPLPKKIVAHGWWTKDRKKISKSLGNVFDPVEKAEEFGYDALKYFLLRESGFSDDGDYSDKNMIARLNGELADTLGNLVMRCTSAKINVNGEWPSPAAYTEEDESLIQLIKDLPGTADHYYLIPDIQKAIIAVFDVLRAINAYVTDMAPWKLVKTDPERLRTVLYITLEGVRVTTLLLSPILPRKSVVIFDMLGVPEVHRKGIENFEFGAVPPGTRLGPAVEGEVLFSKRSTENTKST

[8] = Counterscreen for inhibitors of Trypanosoma brucei methionyl tRNA synthetase (MetRS): Luminescence-based cell-based high throughput dose response assay to identify compounds that are cytotoxic to Jurkat human T lymphocyte cells.; assay type: functional
[9] = target: T2, Methionyl-tRNA synthetase, putative; assay type: functional, Trypanosoma brucei brucei strain 927/4 GUTat10.1; remark: listed apart in the source
[10] = inhibitors of PGC1a acetylation in cells, dose response, cell-based, cherry-picked samples (AID 720514); assay type: functional;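 also: potency may reflect raised or lowered acetylation signal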
[11] = HepG2 cell cytotoxicity, dose response, cytotoxicity control, cherry-picks, set 5 (AID 1053118); assay type: functional, cell-based
[12] = HEK293 cell cytotoxicity, dose response, cytotoxicity control, cherry-picks, set 5 (AID 1053117); assay type: functional, cell-based
[13] = A549 cell cytotoxicity, dose response, cytotoxicity control, cherry-picks, 26 µM top dose (AID 1053119); assay type: functional, cell-based
[14] = target: Mitogen-activated protein kinase 10 (Homo sapiens, UniProt P53779); experiment: Dose response biochemical screening assay for inhibitors of c-Jun N-Terminal Kinase 3 (JNK3). [Related pubchem assays: 746 ]
[15] = target: Major prion protein (Homo sapiens, UniProt P04156); assay type: functional, cell-based
[16] = cells
[17] = Shn3 3'UTR reporter inhibitors, dose response, cell-based, Clone20 osteoblasts, firefly luciferase, cherry-picked (AID 624132); assay type: functional;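 also: firefly luciferase luminescence from reporter carrying the Shn3 3'UTR in osteoblasts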
[18] = target: Melanocortin receptor 4 (Homo sapiens, UniProt P32245); assay type: functional, cell-based;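 also: Cell-based assay with luminescence read-out, confirmatory dose-response testing for agonist activity of biased ligands at MC4R; human U2OS cells with tagged receptor and beta-arrestin; potency of agonists that increase receptor coupling to beta-arrestin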
[19] = HepG2 cell cytotoxicity, dose response, cytotoxicity control for Shn3 inhibitor project, CellTiter-Glo, cherry-picked (AID 624134); assay type: functional, cell-based
[20] = control 3'UTR Renilla luciferase suppression, dose response, counter-screen for Shn3 inhibitor project, cell-based, Clone20-Shn3RL, cherry-picked (AID 624133); assay type: functional
[21] = target: Paired box protein Pax-8 (Homo sapiens, UniProt Q06710); experiment: inhibitors of PAX8-driven TPO luciferase reporter, dose response, RMG-I cells, cherry-pick (AID 687027); assay type: functional, cell-based;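 also: luciferase reporter driven by Pax8 target thyroperoxidase promoter measured by SteadyGlo luminescence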
[22] = non-specific cell cytotoxicity, dose response, cytotoxicity control for PAX8 inhibitor project, plate reader, dry powder samples (AID 743021); assay type: functional, cell-based
[23] = Luminescence-based cell-based high throughput dose response assay to identify activators of the DAF-12 from the parasite S. stercoralis (ssDAF-12).; assay type: functional
[24] = target: Aryl hydrocarbon receptor (Homo sapiens, UniProt P35869); conditions: Potency;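 also: confirmatory quantitative high-throughput screen measuring activation of the AhR signaling pathway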

## CC1=C(NCCc2ccccc2)CCC1=O
[1]
  IC50: > 29.9 µM (inactive)
[2]
  EC50: 1.16 µM (active)
[3]
  IC50: 5.79 µM (active)
[4]
  EC50: > 29.9 µM (inactive)

## O=C(CCNS(=O)(=O)c1ccc(Br)s1)Nc1ccc(Cl)cc1
[5]
  EC50: 3.44 µM (active)
[6]
  EC50: > 60 µM (inconclusive)
[7]
  IC50: 3.53 µM (active)
[8]
  IC50: 83.3 µM (inactive)
[9]
  IC50: 1.85 µM (active)

## CO[C@H]1CN(C)C(=O)c2ccc(NC(=O)c3ccc(-c4ccccc4)cc3)cc2OC[C@H](C)NC[C@@H]1C
[10]
  AC50: 31.9 µM (active)
[11]
  AC50: > 52 µM (inactive)
[12]
  AC50: > 52 µM (inactive)
[13]
  AC50: > 52 µM (inactive)

## S=C(NCCSCc1ccc(Cl)cc1)Nc1ccccc1
[7]
  IC50: 8.52 µM (active)
[8]
  IC50: 83.3 µM (inactive)
[9]
  IC50: 11.7 µM (inactive)

## CSCCC(Nc1ncnc2ccc(Br)cc12)C(=O)O (stereo not given)
[14]
  IC50: 45 µM (not active)
[15]
  IC50: 1.91 µM (active)
[16]
  IC50: > 138 µM (inactive)

## CCN1CCN(Cc2ccc(NC(=O)c3cc(NC(=O)c4cncc(-c5ccc(C#N)cc5)c4)cc(OC)c3)cc2C(F)(F)F)CC1
[17]
  AC50: 3.36 µM (active)
[18]
  EC50: > 89.2 µM (inactive)
[19]
  AC50: 8.15 µM (active)
[20]
  AC50: 7.18 µM (active)
[21]
  AC50: 7.76 µM (active)
[10]
  AC50: 6.66 µM (active)
[22]
  AC50: 48.2 µM (active)

## COc1ccc2c(C)cc(SCC(=O)c3ccc4c(c3)OCO4)nc2c1
[5]
  EC50: 1.53 µM (active)
[6]
  EC50: > 60 µM (not active)
[23]
  IC50: > 67.5 µM (inactive)

## O=C(Nc1ccccc1)Nc1cnns1 [THIDIAZURON]
[24]
  AC50: 50.1 µM (inconclusive)
